Results from patent US7456146B2, “Lytic peptide prodrugs” (GHC Research Development Corporation, priority 2001, dated 2008).
Starred links: 1 amine or outer side, 2 acyl side, 3 side chain; linkers in the order of their positions; H or OH if unused. Groups on a side chain read outwards from the residue. No end group written: not given here. γGlu = O=C(O)[C@H](CCC(=O)[*:2])N[*:1]

How the values were obtained:
[1] = test system: nucleated cells; settings: cited from earlier work
[2] = test system: PSMA-expressing prostate cells (LNCaP-FCG); test: toxicity to PSMA-expressing prostate cells (FIG. 5); assay type: cell-based; settings: 25 and 50 mM concentrations
Excerpt: (§1) The same analog was used to treat a PSMA-expressing prostate cells (LNCaP-FCG), ovarian cancer cells (HeLa) or prostate cells not expressing PSMA (PC3).

[3] = test system: PNCap; test: lytic activity on cultured tumor cells, prostate tumor PNCap (FIG. 4); assay type: cell-based; settings: 1, 10, 50 or 100 μM peptide
Description: (§2) This experiment, utilized a melittin analog having A [ε-γ]-Glu-[α-γ]-Glu at each of lysines 21 and 23: NH2-[…][ε-γ]-Glu-[α-γ]-Glu)-Arg-Lys([ε-γ]-Glu-[α-γ]-Glu)-Arg-Gln-Gln-COOH. (SEQ ID NO: 19) Two prostate tumors (PNCap and DU0145), two ovarian tumors (HeLa and SK-OV-3), one lung tumor (LLC 1) and one melanoma (B 16) were tested. Cultured cells were treated with 1, 10, 50 or 100 μM peptide.

[4] = test system: prostate cells not expressing PSMA (PC3); test: toxicity to prostate cells not expressing PSMA (FIG. 5); assay type: cell-based; settings: 25 and 50 mM concentrations
Excerpt: as §1

[5] = test system: SK-OV-3; test: lytic activity on cultured tumor cells, ovarian tumor SK-OV-3 (FIG. 4); assay type: cell-based; settings: 1, 10, 50 or 100 μM peptide
Description: as §2

[6] = test system: HeLa; test: lytic activity on cultured tumor cells, HeLa (FIG. 4, FIG. 5); assay type: cell-based
Description: as §2, §1

[7] = test system: LLC 1; test: lytic activity on cultured tumor cells, lung tumor LLC 1 (FIG. 4); assay type: cell-based; settings: 1, 10, 50 or 100 μM peptide
Description: as §2

[8] = test system: mice; test: toxicity of escalating doses in mice; assay type: in vivo; settings: 50, 100, 150 and 200 mM
Description: To assess the toxicity of this analog, mice were treated with escalating doses of analog, either subcutaneously or intravenously.

[9] = test system: B 16; test: lytic activity on cultured tumor cells, melanoma B 16 (FIG. 4); assay type: cell-based; settings: 1, 10, 50 or 100 μM peptide
Description: as §2

[10] = test system: DU0145; test: lytic activity on cultured tumor cells, prostate tumor DU0145 (FIG. 4); assay type: cell-based; settings: 1, 10, 50 or 100 μM peptide
Description: as §2

[11] = test system: mouse L-cells; test: ATP depletion assay (ATP bioluminescence), mouse L-cells (FIG. 3); assay type: cell-based; settings: 50 or 100 μM; 1 hour
Excerpt: (§3) In order to obtain a more quantitative result, the assay was repeated and decrease in ATP levels was used as a surrogate marker for live versus dead cells. ATP plays a central role in the energy status of the cell and the regulation of enzymatic activity. The intracellular ATP level is strictly regulated. The assay of ATP has been used as a rapid and convenient measure of viable cell numbers. ATP level can be enzymatically determined with firefly luciferase, which specifically catalyzes the hydrolysis of ATP. The amount of light generated by this enzymatic reaction is directly related to the amount of ATP in the original sample.
(§4) For this purpose, the ATP Bioluminescence Assay Kit CLS II from Boehringer-Mannheim (Cat. No. 1699695) was employed. Briefly, 10^6 cells in 200 μl of medium containing the peptide, as above, were incubated at 37° C. in a CO2 incubator for 60 min. The cells were then lysed with 10 μl of 10% Triton X-100. Each lysate was transferred into a tube containing 155 μl of distilled water and 25 μl of stock luciferase and chemiluminescence was measured in a luminometer as directed by the manufacturer. As can been seen from FIG. 3, ATP is dramatically depleted in the presence of either 50 or 100 μM peptide, as compared to the controls.

[12] = test system: human prostate cancer cells (LNCaP); test: ATP depletion assay (ATP bioluminescence), LNCaP (FIG. 3); assay type: cell-based; settings: 50 or 100 μM; after 1 hour
Excerpt: as §3, §4

[13] = test system: mouse L-cells; test: cell lysis assay, mouse L-cells (FIG. 1); assay type: cell-based; settings: 50 μM; after 24 hours
[14] = test system: human prostate cancer cells (LNCaP); test: cell lysis assay, LNCaP prostate tumor cells (FIG. 1); assay type: cell-based; settings: 50 μM; after 15 minutes
Description: For cell lysis assay, 10^6 LNCaP prostate tumor cells were cultured in 48-well plate in 200 μl culture medium containing different concentrations of the peptide. The culture medium for LNCaP cell was RPMI 1640 medium with 2 mM L-glutamine adjusted to contain 1.5 g/L sodium bicarbonate, 4.5 g/L glucose, 10 mM HEPES, 1.0 mM sodium pyruvate, 90%; fetal bovine serum 10%. […]

For “NH2-Gly-Phe-Ile-Ala-Thr-Leu-Cys-Thr-Lys-Val-Leu-Asp-Phe-Gly-Ile-Asp-Lys-Leu-Ile-Gln-Leu-Ile-Glu-Asp-Lys-CONH2 (H-GFIATLCTKVLDFGIDKLIQLIEDK-NH2; listed as Entamoeba histolytica) [Amoebapore Helix 3]”, the “concentration with cytolytic activity” value [1] is listed as 10 to 100 µM.

For `CC[C@H](C)[C@H](NC(=O)CN)C(=O)NCC(=O)N[C@@H](C)C(=O)N[C@H](C(=O)N[C@@H](CC(C)C)C(=O)N[C@@H](CCCCN)C(=O)N[C@H](C(=O)N[C@@H](CC(C)C)C(=O)N[C@H](C(=O)N[C@H](C(=O)NCC(=O)N[C@@H](CC(C)C)C(=O)N1CCC[C@H]1C(=O)N[C@@H](C)C(=O)N[C@@H](CC(C)C)C(=O)N[C@H](C(=O)N[C@@H](CO)C(=O)N[C@@H](Cc1c[nH]c2ccccc12)C(=O)N[C@H](C(=O)N[C@@H](CCCCNC(=O)CC[C@H](NC(=O)CC[C@H](N)C(=O)O)C(=O)O)C(=O)N[C@@H](CCCNC(=N)N)C(=O)N[C@@H](CCCCNC(=O)CC[C@H](NC(=O)CC[C@H](N)C(=O)O)C(=O)O)C(=O)N[C@@H](CCCNC(=N)N)C(=O)N[C@@H](CCC(N)=O)C(=O)N[C@@H](CCC(N)=O)C(=O)O)[C@@H](C)CC)[C@@H](C)CC)[C@@H](C)O)[C@@H](C)O)C(C)C)C(C)C` [melittin analog], the toxicity to cells [2] was “highly toxic”, the lytic activity [3] was “strong lytic activity” and the toxicity to cells [4] was “relatively unaffected”. For the same molecule, the lytic activity [5] was “strong lytic activity”, the lytic activity ([6]; 1, 10, 50 or 100 μM peptide) was “strong lytic activity” and the toxicity to cells ([6]; 25 and 50 mM concentrations) was “highly toxic”. For the same molecule, the lytic activity [7] was “strong lytic activity”, the “tolerated concentration relative to concentration needed to kill a mouse using the unmasked melittin peptide” value [8] was 50-200 fold and the “condition of mice after treatment” value ([8]; subcutaneously or intravenously, weeks following treatment) was “remained healthy, apparently unaffected”. The lytic activity [9] was “strong lytic activity” and the lytic activity [10] was “strong lytic activity”.

For “amoebapore helix 3-γ-Glu-γ-Glu: 25-residue C-terminal amidated amoebapore helix 3 peptide with two γ-linked glutamates on the ε amino group of the C-terminal lysine (GFIATLCTKVLDFGIDKLIQLIEDK([γGlu-γGlu])-NH2; N-terminus assumed; SMILES CC[C@H](C)[C@H](NC(=O)CNC(=O)[C@H](Cc1ccccc1)NC(=O)[C@H](CC(=O)O)NC(=O)[C@H](CC(C)C)NC(=O)[C@@H](NC(=O)[C@H](CCCCN)NC(=O)[C@@H](NC(=O)[C@H](CS)NC(=O)[C@H](CC(C)C)NC(=O)[C@@H](NC(=O)[C@H](C)NC(=O)[C@@H](NC(=O)[C@H](Cc1ccccc1)NC(=O)CN)[C@@H](C)CC)[C@@H](C)O)[C@@H](C)O)C(C)C)C(=O)N[C@@H](CC(=O)O)C(=O)N[C@@H](CCCCN)C(=O)N[C@@H](CC(C)C)C(=O)N[C@H](C(=O)N[C@@H](CCC(N)=O)C(=O)N[C@@H](CC(C)C)C(=O)N[C@H](C(=O)N[C@@H](CCC(=O)O)C(=O)N[C@@H](CC(=O)O)C(=O)N[C@@H](CCCCNC(=O)CC[C@H](NC(=O)CC[C@H](N)C(=O)O)C(=O)O)C(N)=O)[C@@H](C)CC)[C@@H](C)CC)”, the “cell lysis by ATP depletion” value [11] was “remain unaffected”, the “cell lysis by ATP depletion” value [12] was “completely lysed” and the cell lysis [13] was “remain unaffected”. For the same molecule, the cell lysis [14] was “completely lysed”.
